We go through 10 molecules from article PMC11269945, “HTRF-based assay for detection of mono-ADP-ribosyl hydrolyzing macrodomains and inhibitor screening” (iScience, 2024).

One test concerns the target HCoV-229e macrodomain (Human coronavirus 229E, UniProt P0C6X1). The test is described as follows: DeMAR HTRF deMARylation assay, wash protocol. It counts as biochemical.
Test [1] concerns the target T1, MacroD1 (Homo sapiens, UniProt Q9BQ69).
T1 sequence (Q9BQ69 90-325): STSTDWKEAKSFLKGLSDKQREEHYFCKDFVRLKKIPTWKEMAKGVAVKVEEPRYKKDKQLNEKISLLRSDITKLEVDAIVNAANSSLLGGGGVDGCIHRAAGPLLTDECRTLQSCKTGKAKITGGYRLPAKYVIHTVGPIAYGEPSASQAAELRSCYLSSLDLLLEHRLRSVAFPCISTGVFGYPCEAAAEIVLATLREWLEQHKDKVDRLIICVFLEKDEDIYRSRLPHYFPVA
As to the kind of experiment: biochemical.

For a further test, the target named is T2, PARP14 Mac2/3 (Homo sapiens, UniProt Q460N5).
T2 sequence (Q460N5 994-1393): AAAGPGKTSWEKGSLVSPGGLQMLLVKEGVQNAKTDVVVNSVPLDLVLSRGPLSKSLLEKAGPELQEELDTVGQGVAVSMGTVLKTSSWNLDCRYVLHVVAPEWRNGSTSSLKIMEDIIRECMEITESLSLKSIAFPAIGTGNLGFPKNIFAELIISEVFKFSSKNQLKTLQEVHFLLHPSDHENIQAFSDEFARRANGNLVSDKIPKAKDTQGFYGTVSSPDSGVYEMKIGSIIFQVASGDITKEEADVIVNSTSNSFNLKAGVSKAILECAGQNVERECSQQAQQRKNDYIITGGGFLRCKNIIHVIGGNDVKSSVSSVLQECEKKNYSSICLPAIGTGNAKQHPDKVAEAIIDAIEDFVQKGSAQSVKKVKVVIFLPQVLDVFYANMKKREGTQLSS
The test is described as follows: biochemical. It counts as binding.

Test [2] deals with T1, MacroD1. Further details: method as in PMID 18983849. As to conditions: read-out: Kd for free ADPr, MacroD1; cited from earlier work.
The target in another test is CHIKV macrodomain (Chikungunya virus, UniProt Q8JUX6, C1333S). In kind it is biochemical, Chikungunya (CHIKV) alphavirus.
Test [3] has as its target T3, SARS-CoV-2 Mac1 (Severe acute respiratory syndrome coronavirus 2, UniProt P0DTD1). It counts as biochemical.
The next test concerns the target T4, TARG1 (Homo sapiens, UniProt Q9Y530).
T4 construct: "Uniprot: Q9Y530" res; His10 with TEV site (N, cleaved yes); made in house; host or cells: E. coli T7-express
T4 sequence (Q9Y530 3-152): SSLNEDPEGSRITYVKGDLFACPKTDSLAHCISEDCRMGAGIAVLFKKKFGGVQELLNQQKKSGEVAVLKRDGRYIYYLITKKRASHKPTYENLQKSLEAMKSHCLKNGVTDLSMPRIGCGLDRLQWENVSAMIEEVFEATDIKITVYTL
In kind it is biochemical. As to conditions: read-out: IC50 TARG1.

The target of the next test is T5, MacroD2 (Homo sapiens, UniProt A1Z1Q3).
T5 sequence (A1Z1Q3 4-243): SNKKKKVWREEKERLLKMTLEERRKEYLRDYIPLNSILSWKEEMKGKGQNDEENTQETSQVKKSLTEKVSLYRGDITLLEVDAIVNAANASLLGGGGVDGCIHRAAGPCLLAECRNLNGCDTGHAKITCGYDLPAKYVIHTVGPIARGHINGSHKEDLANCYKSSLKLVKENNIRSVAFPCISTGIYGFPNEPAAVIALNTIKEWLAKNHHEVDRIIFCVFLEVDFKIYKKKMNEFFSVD
It counts as biochemical. As to conditions: read-out: IC50 MacroD2.

Test [4] addresses T3, SARS-CoV-2 Mac1. The test is described as follows: biochemical.
Test [5] concerns MARylated Tb-PARP10cat. It counts as biochemical, human.
In test [6] the test system is MARylated Tb-PARP10cat. It counts as biochemical, human. This is another data set of the same source.
[7] abbreviates: read-out: IC50 HCoV-229e, wash setup, 2 h, 80 nM macrodomain, 6 nM immobilized Tb-PARP10cat.

Where a name gives a salt, the structure may show the parent alone. Read-outs that look alike come from different tables or passages of the source. Bounds are passed on as bounds.

For `Nc1ncnc2c1ncn2C1OC(COP(=O)(O)OP(=O)(O)OCC2OC(O)C(O)C2O)C(O)C1O` (centres unmarked) [ADPr, Adenosine 5′-diphosphoribose sodium salt], the values for the IC50 at HCoV-229e macrodomain, at MacroD1 [1] and against PARP14 Mac2/3 were about 460 µM, 2000 nM and 67 µM, respectively. Besides, the Kd on MacroD1 [2] was 900 nM.

For the molecule `N#C[C@@]1(c2ccc3c(N)ncnn23)O[C@H](CO)[C@@H](O)[C@H]1O` [GS-441524], at HCoV-229e macrodomain (setting [7]), the IC50 is over 667 µM. The “IC50 CHIKV” value against CHIKV macrodomain is recorded as “slight activity”. Besides, the “readout quenching in one-pot setup (PARP14 Mac2/3 off-target), in words” value (shortened to “readout quenching in one-pot setup”) on PARP14 Mac2/3 is “clear and concentration-dependent loss of signal”. The “inhibition of SARS-CoV-2 Mac1 in words” value against SARS-CoV-2 Mac1 [3] is “slightly inhibits”.

Consider `O=C(Nc1ccc(C(=O)NC2c3cccc(O)c3CC2C(=O)O)cc1)NC1CC1` (centres unmarked) [Z8539], for which the IC50 on HCoV-229e macrodomain (setting [7]) is over 667 µM. Also, the “readout quenching in one-pot setup” value on PARP14 Mac2/3 is on record as “does not show a strong quenching effect”.

As to `O=C(Nc1ccccc1)Nc1ccc(C(=O)NC2c3cccc(O)c3CC2C(=O)O)cc1` (centres unmarked) [Z8539_0023], the IC50 on TARG1 was over 667 µM; at MacroD1 [1] (read-out: IC50 MacroD1), over 667000 nM; on MacroD2, over 667 µM; at SARS-CoV-2 Mac1 [4], 6 µM. On PARP14 Mac2/3, the “readout quenching in one-pot setup” value is recorded as “pronounced readout quenching”.

Take `O=C(Nc1ccc(C(=O)NC2c3cccc(O)c3CC2C(=O)O)c(O)c1)NC1CC1` (centres unmarked) [Z8539_0072]: the IC50 on HCoV-229e macrodomain (setting [7]) is over 667 µM; against SARS-CoV-2 Mac1 [4], 14 µM.

Regarding `Oc1c(Cl)cc(Cl)c(Cl)c1Cc1c(O)c(Cl)cc(Cl)c1Cl` [hexachlorophene], the “inhibition of SARS-CoV-2 Mac1 in words” value against SARS-CoV-2 Mac1 [3] is reported as “limited efficacy”.

B1: HCoV-229e: recombinant HCoV-229E macrodomain, Uniprot P0C6X1 res. E1270-1437 (protein, UniProt P0C6X1 1270-1437, looked up, fragment)
chain: EKLNAFLVHDNVAFYQGDVDTVVNGVDFDFIVNAANENLAHGGGLAKALDVYTKGKLQRLSKEHIGLAGKVKVGTGVMVECDSLRIFNVVGPRKGKHERDLLIKAYNTINNEQGTPLTPILSCGIFGIKLETSLEVLLDVCNTKEVKVFVYTDTEVCKVKDFVSGLVN
modifications: Non-structural protein 3 macrodomain
Take B1: the “EC80 One-pot (1 h)” value with MARylated Tb-PARP10cat [5] stood at 36 nM. In the test with MARylated Tb-PARP10cat [6], the “EC80 Wash (2 h)” value is 15 nM.

B2: MacroD1: recombinant human MacroD1, Uniprot Q9BQ69 res. 90-325 (protein, UniProt Q9BQ69 90-325, looked up, fragment)
chain: STSTDWKEAKSFLKGLSDKQREEHYFCKDFVRLKKIPTWKEMAKGVAVKVEEPRYKKDKQLNEKISLLRSDITKLEVDAIVNAANSSLLGGGGVDGCIHRAAGPLLTDECRTLQSCKTGKAKITGGYRLPAKYVIHTVGPIAYGEPSASQAAELRSCYLSSLDLLLEHRLRSVAFPCISTGVFGYPCEAAAEIVLATLREWLEQHKDKVDRLIICVFLEKDEDIYRSRLPHYFPVA
Turning to B2, the “EC80 One-pot (1 h)” value in the test on MARylated Tb-PARP10cat [5] worked out at 4 nM. Besides, the “EC80 Wash (2 h)” value in the test with MARylated Tb-PARP10cat [6] amounted to 3 nM.

B3: MacroD2: recombinant human MacroD2, Uniprot A1Z1Q3 res. 4-243 (protein, UniProt A1Z1Q3 4-243, looked up, fragment)
chain: SNKKKKVWREEKERLLKMTLEERRKEYLRDYIPLNSILSWKEEMKGKGQNDEENTQETSQVKKSLTEKVSLYRGDITLLEVDAIVNAANASLLGGGGVDGCIHRAAGPCLLAECRNLNGCDTGHAKITCGYDLPAKYVIHTVGPIARGHINGSHKEDLANCYKSSLKLVKENNIRSVAFPCISTGIYGFPNEPAAVIALNTIKEWLAKNHHEVDRIIFCVFLEVDFKIYKKKMNEFFSVD
As to B3, in the test on MARylated Tb-PARP10cat [5], the “EC80 One-pot (1 h)” value was 3 nM. Moreover, in the test with MARylated Tb-PARP10cat [6], the “EC80 Wash (2 h)” value came out at 2 nM.

B4: TARG1: recombinant human TARG1, Uniprot Q9Y530 res. S3-152 (protein, UniProt Q9Y530 3-152, looked up, fragment)
chain: SSLNEDPEGSRITYVKGDLFACPKTDSLAHCISEDCRMGAGIAVLFKKKFGGVQELLNQQKKSGEVAVLKRDGRYIYYLITKKRASHKPTYENLQKSLEAMKSHCLKNGVTDLSMPRIGCGLDRLQWENVSAMIEEVFEATDIKITVYTL
Turning to B4, the “EC80 One-pot (1 h)” value in the test on MARylated Tb-PARP10cat [5] is “∼2256 nM”. The “EC80 Wash (2 h)” value in the test with MARylated Tb-PARP10cat [6] was “∼ 830 nM”.

The IC50 is the concentration that gives 50% inhibition. Broadly, the Kd is the equilibrium constant for the complex coming apart.
